According to patent US20080233202A1, “Fungicidal Compositions” (priority 2004, published 2008):

Assays:
[1] = tested on: Squash (Cucurbita maxima) cv ‘Delica’; experiment: Trial 3 leaf health rating and phyto-toxicity; format: in vivo; design: key: A: Perfect condition - no abiotic or biotic blemishes.; B: Small blemishes e.g. chlorotic patches, rubbing, insect damage; C: Severe/advanced chlorosis, necrosis or leaf distortion; D: Leaf dead
Procedure: Qualitative assessments of leaf health/condition were made at the same time as disease severity assessments, using the arbitrary scale described below.
Leaf health ratings were assessed using the criteria described in Table 4. Each value presented in Table 12 is a median value rather than an arithmetic mean.

[2] = tested on: cucurbit PM pathogen Sphaerotheca fuliginea; experiment: Trial 3 main treatments, PM disease severity on ‘Delica’ squash leaves; format: in vivo
Procedure: Squash (Cucurbita maxima) cv ‘Delica’ were raised and the first true leaf on each plant was artificially inoculated as in Trial 1.
Treatment applications were normally at 7-day intervals (although 14 and 21 day intervals were also used in Trial 3) and involved spraying all leaves to run-off (approximately 5 ml per leaf) using hand-held mister-bottles. The first application commenced 3-4 days after artificial inoculation (except for elicitor treatments in Trial 3), when the non-inoculated leaves on plants were still largely disease-free, and plants had up to 8 true leaves (i.e. were 5-6 weeks old).
Disease severity on true leaves 1-8 was rated weekly or fortnightly as discussed above.
Data were analysed as a repeated measures design (RMD) to determine the treatment effect on disease severity over time. Treatment differences at final disease assessment were also assessed as a randomised block design (RBD), by analysis of variance (ANOVA), with means separation by Fisher's Least Significant Difference (LSD) (P<0.05), using SAS software, version 8.01 TS (SAS Institute, Cary, N.C.).
Eight replicate squash plants per treatment (1 replicate per block) were assessed.
The first true leaf of each plant was artificially inoculated with PM, while all other leaves on the plant were allowed to infect naturally. Elicitors (treatments 13-15) were first applied 5 days before artificial inoculation, to allow time for induction of host defences prior to advent of the PM fungus, and every three weeks thereafter. […] All other treatments were first applied 3 days after artificial inoculation and at weekly (treatments 1-4, 7-8, 10-12, 16-20), fortnightly (treatment 5), or 3 weekly intervals (treatments 6 and 9) thereafter.
Treatment effect over time at 0, 2, 4, 6 and 7 weeks was assessed.

Botrytis cinerea spores = experiment: Spore germination inhibition, 96-multiwell assay; format: cell-based; design: key: ****: No germination (score 4); ***: Slight germination (3); **: Moderate germination (2); *: Germination, less than control (1); —: No activity = germination same as the control (score 0); details: after 24 hours incubation at 19° C.
Procedure: (§1) The effect of selected treatments on the germination of three other important horticultural fungi, Botrytis cinerea (causal agent of grey mould on grapes, kiwifruit, tomatoes, strawberries, etc), Monilinia fructicola (causal agent of brown rot on stonefruit), and Cladosporium cladosporiodes (one of the fungi that can cause sooty mould) were also assessed using the 96-multiwell assay of Wilson et al (10).

[3] = tested on: Monilinia fructicola spores; experiment: Spore germination inhibition, 96-multiwell assay; format: cell-based; design: key: ****: No germination (score 4); ***: Slight germination (3); **: Moderate germination (2); *: Germination, less than control (1); —: No activity = germination same as the control (score 0); details: after 24 hours incubation at 19° C.
Procedure: as §1

[4] = tested on: Cladosporium cladosporiodes spores; experiment: Spore germination inhibition, 96-multiwell assay; format: cell-based; design: key: ****: No germination (score 4); ***: Slight germination (3); **: Moderate germination (2); *: Germination, less than control (1); —: No activity = germination same as the control (score 0); details: after 24 hours incubation at 19° C.
Procedure: as §1

[5] = tested on: Botrytis cinerea, Cladosporium cladosporiodes, and Monilinia fructicola spores; experiment: Spore germination inhibition, overall rating over the three fungi; format: cell-based; details: sum of all the germination scores; maximum 12 (greatest inhibition), minimum 0
Procedure: as §1
The Overall Rating is the sum of all the germination scores for each treatment (maximum possible value: 12 (greatest inhibition); minimum: 0 (no inhibition)).

[6] = tested on: cucurbit PM pathogen Sphaerotheca fuliginea; experiment: Trial 3 additional treatments, PM disease severity on ‘Delica’ squash leaves; format: in vivo; details: non-inoculated leaves (FIG. 7)
Description: Treatments were first applied 3 days after artificial inoculation of leaf 1, and at weekly intervals thereafter. There were 4 replicates per treatment, with two replicates per table per glasshouse.

| Compound | leaf health rating ([1]; Trial 3 main, non-inoculated leaves after 7 weeks of treatment application, median value) | course of PM disease over time ([2]; inoculated leaves) | PM Disease Rating ([2]; inoculated leaves, 0 wks, scale 0-6 of Table 1) | PM Disease Rating ([2]; inoculated leaves, 2 wks) | PM Disease Rating ([2]; inoculated leaves, 4 wks) | PM Disease Rating ([2]; inoculated leaves, 6 wks) | PM Disease Rating ([2]; inoculated leaves, 7 wks) | course of natural PM infections over time ([2]; non-inoculated leaves, 0-7 weeks) | PM Disease Rating ([2]; non-inoculated leaves, 0 wks, scale 0-6 of Table 1) | PM Disease Rating ([2]; non-inoculated leaves, 2 wks) | PM Disease Rating ([2]; non-inoculated leaves, 4 wks) | PM Disease Rating ([2]; non-inoculated leaves, 6 wks) | PM Disease Rating ([2]; non-inoculated leaves, 7 wks) | Germination inhibition, Botrytis (Botrytis cinerea spores) | Germination inhibition, Monilinia [3] | Germination inhibition, Clado. [4] | Overall Rating [5] | leaf health rating ([1]; Trial 3 additional, non-inoculated leaves, after 7 weeks) | course of PM disease severity over time [6] |
| --- | --- | --- | --- | --- | --- | --- | --- | --- | --- | --- | --- | --- | --- | --- | --- | --- | --- | --- | --- |
| CCCCC/C=C\C/C=C\CCCCCCCC(=O)O [Linol, Linoleic acid] | F (More than 20% of the leaf area is dead) | disease increased steadily throughout the trial | 2.63 | 5.25 | 5.88 | 6.00 | 6.00 | rapid breakdown in protective activity | 0.63 | 2.77 | 5.56 | 6.00 | 6.00 | — | — | — | 0 |  |  |
| Di-glycerine-mono-laurate [DGML] |  |  |  |  |  |  |  |  |  |  |  |  |  | ** | **** | **** | 10 | E | increased significantly over time |
